The values below come from ChEMBL document CHEMBL1154708, “Identification of a brain penetrant PDE9A inhibitor utilizing prospective design and chemical enablement as a rapid lead optimization strategy” (J Med Chem, 2009).

The target in series [1] is Dual specificity calcium/calmodulin-dependent 3',5'-cyclic nucleotide phosphodiesterase 1C (Homo sapiens, UniProt Q14123). In words: Inhibition of human recombinant PDE1C expressed in Sf9 cells by SPA.
Series [2] deals with T1, High affinity cGMP-specific 3',5'-cyclic phosphodiesterase 9A (Homo sapiens, UniProt O76083). The experiment in a line: Inhibition of human recombinant PDE9A expressed in Sf9 cells by SPA.
A short description of series [3]: Inhibition of PDE2.
Series [4] has as its system Mus musculus. In words: Increase in […] level in CD1 mouse striatum at 10 mg/kg, sc after 30 mins. In kind it is functional. Conditions: route subcutaneous. On the technique in general: Cyclic AMP is a second messenger, typically raised through Gs and lowered through Gi signalling.
Series [5] concerns the target cGMP-inhibited 3',5'-cyclic phosphodiesterase 3A (Homo sapiens, UniProt Q14432). The experiment in a line: Inhibition of PDE3A.
The target in series [6] is cGMP-specific 3',5'-cyclic phosphodiesterase (Homo sapiens, UniProt O76074). In words: Inhibition of PDE5.
The nature of series [7]: Ratio of drug level in brain to plasma of rat. The series is classed as ADME, cell-free. Conditions: brain and plasma.
For series [8], the target named is 3',5'-cyclic-AMP phosphodiesterase 7B (Homo sapiens, UniProt Q9NP56). In words: Inhibition of PDE7B.
Series [9] concerns the target 3',5'-cyclic-AMP phosphodiesterase 4C (Homo sapiens, UniProt Q08493). The experiment in a line: Inhibition of PDE4C.
Series [10] in a line: Inhibition of PDE6.
For series [11], the target named is cAMP and cAMP-inhibited cGMP 3',5'-cyclic phosphodiesterase 10A (Homo sapiens, UniProt Q9Y233). The experiment in a line: Inhibition of PDE10.
The subject of series [12] is Mus musculus. In words: Increase in cGMP level in CD1 mouse striatum at 3.2 mg/kg, sc after 30 mins. The series is classed as functional. The following applies: route subcutaneous.
The target in series [13] is High affinity cAMP-specific and IBMX-insensitive 3',5'-cyclic phosphodiesterase 8B (Homo sapiens, UniProt O95263). The experiment in a line: Inhibition of PDE8B.
The test system of series [14] is Mus musculus. The experiment in a line: Increase in […] level in CD1 mouse striatum at 0.32 mg/kg, sc after 30 mins. In kind it is functional. Conditions: route subcutaneous.
Series [15] has as its target Dual 3',5'-cyclic-AMP and -GMP phosphodiesterase 11A (Homo sapiens, UniProt Q9HCR9). The experiment in a line: Inhibition of PDE11.
Series [16] has as its system Mus musculus. The experiment in a line: Increase in […] level in CD1 mouse striatum at 1 mg/kg, sc after 30 mins. In kind it is functional. The following applies: route subcutaneous.
Series [17] has as its system Mus musculus. In words: Increase in cGMP level in sc dosed CD1 mouse striatum after 30 mins. The series is classed as functional, organism-based.
The target in series [18] is T1, High affinity cGMP-specific 3',5'-cyclic phosphodiesterase 9A. The experiment in a line: Binding affinity to PDE9A.

Bounds are passed on as bounds.

T1 sequence (O76083 whole entry): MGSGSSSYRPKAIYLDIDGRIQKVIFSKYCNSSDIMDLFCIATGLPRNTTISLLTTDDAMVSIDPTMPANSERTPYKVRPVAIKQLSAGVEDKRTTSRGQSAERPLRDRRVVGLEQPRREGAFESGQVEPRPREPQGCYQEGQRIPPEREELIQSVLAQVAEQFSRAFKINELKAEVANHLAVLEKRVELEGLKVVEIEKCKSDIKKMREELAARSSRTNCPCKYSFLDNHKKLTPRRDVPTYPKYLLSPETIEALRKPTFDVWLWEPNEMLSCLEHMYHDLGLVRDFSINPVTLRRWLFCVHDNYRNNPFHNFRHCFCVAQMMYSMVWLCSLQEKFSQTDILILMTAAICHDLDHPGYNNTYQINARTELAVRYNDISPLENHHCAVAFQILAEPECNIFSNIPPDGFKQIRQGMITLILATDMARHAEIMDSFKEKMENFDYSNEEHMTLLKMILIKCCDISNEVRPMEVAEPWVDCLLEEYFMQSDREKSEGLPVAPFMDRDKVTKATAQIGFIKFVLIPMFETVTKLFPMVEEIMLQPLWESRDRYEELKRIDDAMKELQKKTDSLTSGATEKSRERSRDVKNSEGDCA
Chain of Dual specificity calcium/calmodulin-dependent 3',5'-cyclic nucleotide phosphodiesterase 1C (Q14123 whole entry): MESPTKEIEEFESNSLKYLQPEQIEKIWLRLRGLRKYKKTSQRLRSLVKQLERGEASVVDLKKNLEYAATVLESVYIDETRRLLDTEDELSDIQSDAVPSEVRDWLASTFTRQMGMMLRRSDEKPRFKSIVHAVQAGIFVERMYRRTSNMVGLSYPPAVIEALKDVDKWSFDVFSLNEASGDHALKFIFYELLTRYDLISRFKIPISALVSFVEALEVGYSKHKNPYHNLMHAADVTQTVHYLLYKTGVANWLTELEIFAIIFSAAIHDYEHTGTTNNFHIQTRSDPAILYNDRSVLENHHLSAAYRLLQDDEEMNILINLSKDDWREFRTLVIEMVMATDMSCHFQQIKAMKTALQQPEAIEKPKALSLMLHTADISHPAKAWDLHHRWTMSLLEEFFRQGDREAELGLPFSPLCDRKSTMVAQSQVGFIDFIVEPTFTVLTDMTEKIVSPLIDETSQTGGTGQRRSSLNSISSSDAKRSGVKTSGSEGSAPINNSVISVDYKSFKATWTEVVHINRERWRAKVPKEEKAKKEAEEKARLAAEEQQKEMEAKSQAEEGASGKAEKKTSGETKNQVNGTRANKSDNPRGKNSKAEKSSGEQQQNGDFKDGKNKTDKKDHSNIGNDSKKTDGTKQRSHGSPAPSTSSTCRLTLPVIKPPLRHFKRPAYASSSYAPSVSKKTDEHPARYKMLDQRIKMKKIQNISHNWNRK
Chain of 3',5'-cyclic-AMP phosphodiesterase 7B (Q9NP56 whole entry): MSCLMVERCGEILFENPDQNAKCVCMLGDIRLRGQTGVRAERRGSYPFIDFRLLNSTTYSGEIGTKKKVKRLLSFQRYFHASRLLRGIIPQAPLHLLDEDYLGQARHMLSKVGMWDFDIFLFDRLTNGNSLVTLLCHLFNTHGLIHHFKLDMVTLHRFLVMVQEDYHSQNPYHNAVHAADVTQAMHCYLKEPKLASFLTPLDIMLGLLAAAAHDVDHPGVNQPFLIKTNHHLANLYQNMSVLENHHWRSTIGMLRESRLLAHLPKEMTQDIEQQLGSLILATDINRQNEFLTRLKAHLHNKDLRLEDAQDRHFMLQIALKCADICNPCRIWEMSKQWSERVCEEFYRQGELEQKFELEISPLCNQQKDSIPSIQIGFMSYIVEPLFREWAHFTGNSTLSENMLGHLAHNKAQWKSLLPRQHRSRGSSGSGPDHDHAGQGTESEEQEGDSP
Chain of High affinity cAMP-specific and IBMX-insensitive 3',5'-cyclic phosphodiesterase 8B (O95263 whole entry): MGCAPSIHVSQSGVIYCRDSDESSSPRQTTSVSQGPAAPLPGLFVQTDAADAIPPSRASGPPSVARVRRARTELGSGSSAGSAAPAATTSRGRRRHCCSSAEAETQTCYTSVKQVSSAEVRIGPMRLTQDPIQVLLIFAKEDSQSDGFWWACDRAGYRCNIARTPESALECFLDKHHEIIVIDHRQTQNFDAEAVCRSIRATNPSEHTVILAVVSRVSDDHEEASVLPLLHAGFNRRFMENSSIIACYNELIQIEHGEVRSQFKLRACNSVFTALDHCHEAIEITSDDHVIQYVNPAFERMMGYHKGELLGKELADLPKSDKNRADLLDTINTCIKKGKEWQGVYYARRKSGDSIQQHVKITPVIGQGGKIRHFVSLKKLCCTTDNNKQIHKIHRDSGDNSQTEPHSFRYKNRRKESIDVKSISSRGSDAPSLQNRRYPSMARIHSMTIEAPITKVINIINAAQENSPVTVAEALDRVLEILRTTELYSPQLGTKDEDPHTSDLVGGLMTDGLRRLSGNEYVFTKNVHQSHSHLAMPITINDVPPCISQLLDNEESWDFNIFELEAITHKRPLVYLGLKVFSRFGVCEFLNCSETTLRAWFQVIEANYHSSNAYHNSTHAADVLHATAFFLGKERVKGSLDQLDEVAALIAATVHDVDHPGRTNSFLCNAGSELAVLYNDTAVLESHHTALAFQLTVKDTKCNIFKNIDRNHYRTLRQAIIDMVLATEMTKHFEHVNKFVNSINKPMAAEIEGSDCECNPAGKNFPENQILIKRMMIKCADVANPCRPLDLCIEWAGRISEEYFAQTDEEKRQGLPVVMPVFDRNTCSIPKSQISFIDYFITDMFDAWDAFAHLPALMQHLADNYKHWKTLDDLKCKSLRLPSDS
Chain of Dual 3',5'-cyclic-AMP and -GMP phosphodiesterase 11A (Q9HCR9 whole entry): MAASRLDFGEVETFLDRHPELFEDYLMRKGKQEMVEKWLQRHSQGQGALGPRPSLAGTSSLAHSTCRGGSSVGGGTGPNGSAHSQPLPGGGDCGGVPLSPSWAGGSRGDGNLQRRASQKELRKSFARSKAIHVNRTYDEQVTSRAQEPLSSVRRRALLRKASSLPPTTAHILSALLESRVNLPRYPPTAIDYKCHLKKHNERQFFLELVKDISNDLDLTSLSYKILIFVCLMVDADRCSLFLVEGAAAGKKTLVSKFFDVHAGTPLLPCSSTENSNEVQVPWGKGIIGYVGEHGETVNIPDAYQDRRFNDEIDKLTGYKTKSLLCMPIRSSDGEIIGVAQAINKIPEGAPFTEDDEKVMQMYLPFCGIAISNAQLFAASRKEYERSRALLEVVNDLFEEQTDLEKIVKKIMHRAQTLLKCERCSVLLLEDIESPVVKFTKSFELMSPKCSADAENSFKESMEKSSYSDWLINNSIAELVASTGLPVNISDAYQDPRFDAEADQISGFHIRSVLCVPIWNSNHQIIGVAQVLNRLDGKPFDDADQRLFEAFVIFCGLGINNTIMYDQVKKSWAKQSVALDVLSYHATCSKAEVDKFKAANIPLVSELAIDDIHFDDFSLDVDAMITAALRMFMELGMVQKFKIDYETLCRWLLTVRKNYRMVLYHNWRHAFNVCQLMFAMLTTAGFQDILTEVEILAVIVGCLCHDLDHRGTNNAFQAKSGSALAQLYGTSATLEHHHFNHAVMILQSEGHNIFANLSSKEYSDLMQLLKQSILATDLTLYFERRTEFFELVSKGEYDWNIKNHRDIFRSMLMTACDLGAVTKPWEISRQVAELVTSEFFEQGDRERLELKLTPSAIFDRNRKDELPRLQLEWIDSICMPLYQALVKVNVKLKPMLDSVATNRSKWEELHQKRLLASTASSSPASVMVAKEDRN
Chain of 3',5'-cyclic-AMP phosphodiesterase 4C (Q08493 whole entry): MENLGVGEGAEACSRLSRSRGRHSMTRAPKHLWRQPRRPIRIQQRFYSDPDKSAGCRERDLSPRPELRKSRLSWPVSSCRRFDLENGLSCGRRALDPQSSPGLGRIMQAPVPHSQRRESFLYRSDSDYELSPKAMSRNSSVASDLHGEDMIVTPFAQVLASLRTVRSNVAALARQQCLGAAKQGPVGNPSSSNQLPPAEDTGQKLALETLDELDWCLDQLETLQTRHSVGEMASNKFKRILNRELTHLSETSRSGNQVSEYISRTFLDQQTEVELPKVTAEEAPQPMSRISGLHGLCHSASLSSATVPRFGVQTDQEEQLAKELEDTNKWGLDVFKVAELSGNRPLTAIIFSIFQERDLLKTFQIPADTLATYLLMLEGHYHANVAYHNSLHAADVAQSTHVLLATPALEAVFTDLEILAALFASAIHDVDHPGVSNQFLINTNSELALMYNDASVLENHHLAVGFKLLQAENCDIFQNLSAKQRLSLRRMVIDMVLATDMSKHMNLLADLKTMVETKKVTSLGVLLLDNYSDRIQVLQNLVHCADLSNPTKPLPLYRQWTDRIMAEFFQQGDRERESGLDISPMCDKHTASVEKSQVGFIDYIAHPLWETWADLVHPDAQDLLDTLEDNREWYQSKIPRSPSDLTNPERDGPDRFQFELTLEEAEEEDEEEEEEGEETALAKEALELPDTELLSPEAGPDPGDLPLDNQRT

For `CC(C)n1ncc2c(=O)[nH]c([C@@H]3CN(Cc4ccccc4)C[C@H]3C)nc21` (relative stereo), the IC50 in series [1] was determined as 2100 nM.
With `Cc1ncc(CN2C[C@@H](C)[C@H](c3nc4c(cnn4C4CCCC4)c(=O)[nH]3)C2)cn1` (relative stereo), the IC50 in [1] stood at 400 nM; in series [2] (read-out: IC50), 11 nM.
For `CC(C)Cn1ncc2c(=O)[nH]c([C@@H]3CN(Cc4ccccc4)C[C@H]3C)nc21` (relative stereo) the same measures were 1500 nM and 150 nM.
For `C[C@@H]1CN(Cc2ccccc2)C[C@H]1c1nc2c(cnn2C2CCCC2)c(=O)[nH]1` (relative stereo), in that order: 970 nM and 63 nM.
With `Cc1cccc(CN2C[C@@H](C)[C@H](c3nc4c(cnn4C4CCCC4)c(=O)[nH]3)C2)c1` (relative stereo), the IC50 in [1] is 563 nM; in series [2] (read-out: IC50) it was 40 nM; in series [2] (read-out: pIC50 (converted)), 38 nM.
`Cc1cnc(CN2C[C@@H](C)[C@H](c3nc4c(cnn4C4CCCC4)c(=O)[nH]3)C2)cn1` (relative stereo): the IC50 in series [1] turned out to be 210 nM; in [2] (read-out: IC50), 15 nM.
As to `C[C@H]1CN(Cc2ccc3nccnc3c2)C[C@@H]1c1nc2c(cnn2C2CCCC2)c(=O)[nH]1` (relative stereo), the figures for the IC50 in [1] and in series [2] (read-out: IC50) were 73 nM and 1.9 nM, respectively.
Turning to `Cc1cc(CN2C[C@@H](C)[C@H](c3nc4c(cnn4C4CCCC4)c(=O)[nH]3)C2)n(C)n1` (relative stereo), the figures for the IC50 in series [1] and in series [2] (read-out: IC50) were 200 nM and 11 nM, respectively.
In general, Kp refers to the ratio of the level in a tissue or fluid to that in plasma or blood. With `C[C@@H]1CN(Cc2ccc3nccnc3c2)C[C@H]1c1nc2c(cnn2C2CCCC2)c(=O)[nH]1`, the IC50 in [3] is over 1000 nM; in series [5], over 1000 nM; in [6], 349 nM; in series [1] it was 50 nM; in series [8], over 1000 nM; in series [9], over 1000 nM. In addition, the IC50 in series [10] is 127 nM; in series [11], over 1000 nM; in series [13] it was over 1000 nM; in [2] (read-out: IC50) it was 1.8 nM; in [15], over 1000 nM. For the same molecule, the Activity is 215% with Mus musculus [4]; 145% in the series with Mus musculus [12]; 110% with Mus musculus [14]; 119% in the series with Mus musculus [16]; “Dose-dependent effect” in the series on Mus musculus [17]. Besides, the Kp in series [7] worked out at 1.4.
As for `Cc1cc(CN2C[C@@H](C)[C@H](c3nc4c(cnn4C4CCCC4)c(=O)[nH]3)C2)no1` (relative stereo), the IC50 in [1] stood at 110 nM; in series [2] (read-out: IC50), 11 nM.
In the case of `COc1ccc(CN2C[C@@H](C)[C@H](c3nc4c(cnn4C4CCCC4)c(=O)[nH]3)C2)cn1` (relative stereo), the IC50 in series [1] was found to be 270 nM; in series [2] (read-out: IC50), 29 nM.
For `C[C@@H]1CN(Cc2ccc(C(F)(F)F)nc2)C[C@H]1c1nc2c(cnn2C2CCCC2)c(=O)[nH]1`, in that order: 190 nM and 16 nM.
In the case of `Cn1cc(-c2ccncc2)c(-c2ccc(OCc3ccc4ccccc4n3)cc2)n1`, the Activity in series [18] amounted to 2.1 nM.
Turning to `C[C@@H]1CN(Cc2cn3ccccc3n2)C[C@H]1c1nc2c(cnn2C2CCCC2)c(=O)[nH]1` (relative stereo), the IC50 in series [1] was 220 nM; in series [2] (read-out: IC50) it was 12 nM.
`C[C@@H]1CN(Cc2ccccn2)C[C@H]1c1nc2c(cnn2C2CCCC2)c(=O)[nH]1` (relative stereo): the values for the IC50 in series [1] and in series [2] (read-out: IC50) were 1300 nM and 200 nM, respectively.
